Test results from US5595973A, “Protection of hemopoietic cells during chemotherapy or radiotherapy” (Biomeasure Incorporated, priority 1994, dated 1997).

Experiments:
Type in all cases: in vivo, BALB/C mice
Details in all cases: Group 2 (Ara-C+GM-CSF) vs Group 1 (Ara-C)
[1] = tested on: white blood cells; assay: White blood cell counts in mice during three cycles of Ara-C chemotherapy
Procedure: (§1) A number of assays were performed to show the effect of combining the hemopoiesis inhibitory factor and hemopoiesis growth factor on the proliferation of hemopoietic cells during chemotherapy.
(§2) Three groups of BALB/C mice were used in this study. Mice of the three groups were treated as follows (i.e., with Ara-C, the abbreviation of cytosine arabinoside, as the cytotoxic agent, AcSDKP as the hemopoiesis inhibitory factor, and GM-CSF as the hemopoiesis growth factor):
(§3) In each group, the animals were subjected to a sequence of three cycles of chemotherapy, i.e., Cycle I (Days 0-20), Cycle II (Days 21-37), and Cycle III (Days 38-56). Note that animals in each group were sacrificed on specific days for collection of blood samples, eliminating the artifact that may have been induced by intensive repetitive bleedings of the same animals.
(§4) Minipump implantations and excisions: The 200 μl capacity ALZET™ osmotic minipump Model 2001 (Alza Corporation, Palo Alto, Calif.) primed to deliver 1.0 μL/hour for 7 days was used for continuously administering the 100 ng/hour of AcSDKP in each cycle. More specifically, during each cycle, AcSDKP primed pumps were implanted s.c. prior to the first administration of Ara-C in the A.M. of day zero and excised in the A.M. of day 7. The first administration of Ara-C was in the A.M. of day zero and the last administration in the A.M. of day 6 (q.d., or once per day).
(§5) Treatment cycle: For the animals of Group 3, each cycle consists of a period in which Ara-C and AcSDKP were administered, a period in which the administered Ara-C and AcSDKP were purged, a period in which GM-CSF was administered, and, finally, a further recovery period. More specifically, after 7 consecutive days of Ara-C treatment during which time AcSDKP was administered by continuous s.c. infusion (see the preceding paragraph), a 2-day period followed so as to allow for purging of both AcSDKP and Ara-C. GM-CSF was then administered for 4 days (b.i.d., or twice per day), and the animals were permitted 4-8 more days at the end of the GM-CSF administration to recover before the initiation of the subsequent cycle (as in Cycles I and II) or before the collection of the last blood samples (as in Cycle III).
(§6) Blood sample collection: Blood samples (maximum attainable volume) for clinical pathology evaluations were collected from mice at euthanasia. The mice were food-fasted overnight prior to blood collection and samples were collected by puncture of the retro-orbital sinus after anesthetization by CO2 inhalation.
(§7) Analysis of blood samples: Hematology data were collected electronically and processed by the HUMMINGBIRD™ computer system (Laboratories Consulting, Inc., Madison, Wis.). Blood samples were processed and evaluated for the parameters specified (polymorphonuclear cell, platelet, and white blood cell counts in 10^3 cells/[…] as shown in Tables 2 and 3) using a Sysmex TOAE-2500 hematology analyzer (TOA Medical Electronics, Kobe, Japan).
(§8) See the right-hand column "percent change," i.e., (cell count from Group 2/cell count from Group 1)×100%, in Table 2. The data in Table 2 (as well as in Table 3) are log transformed to minimize the effect of outliers and the geometric means of the data are used for the analyses. The difference in the means between two test groups are compared for each of three different stages, i.e., chemotherapy (days 0-4, 21-25 and 38-42 in Cycles I, II and III, respectively), nadir (days 5-10, 26-31 and 43-48 in Cycles I, II and III, respectively), or recovery (days 11-20, 32-37 and 49-56 in Cycles I, II and III, respectively). Significant differences are marked by a large dot, which stands for P<0.003, a statistically significant p-value for data compared between two groups combined over the three cycles.

[2] = tested on: platelets; assay: Platelet counts in mice during three cycles of Ara-C chemotherapy
Procedure: as §1, §2, §3, §4, §5, §6, §7, §8

[3] = tested on: hemopoietic cells; assay: Proliferation of hemopoietic cells and tolerance of multiple cycles of Ara-C chemotherapy
Procedure: as §1, §2, §3, §4
Treatment cycle: For the animals of Group 3, each cycle consists of a period in which Ara-C and AcSDKP were administered, a period in which the administered Ara-C and AcSDKP were purged, a period in which GM-CSF was administered, and, finally, a further recovery period. More specifically, after 7 consecutive days of Ara-C treatment during which time AcSDKP was administered by continuous s.c. infusion (see the preceding paragraph), a 2-day period followed so as to allow for purging of both AcSDKP and Ara-C. […]

[4] = tested on: polymorphonuclear cells; assay: Polymorphonuclear cell counts in mice during three cycles of Ara-C chemotherapy
Procedure: as §1, §2, §3, §4, §5, §6, §7
as §8, with “The” for “See the right-hand column "percent change," i.e., (cell count from Group 2/cell count from Group 1)×100%, in Table 2. The”

[5] = Cycle I, Chemotherapy (days 0-4)
[6] = Cycle II, Chemotherapy (days 21-25)
[7] = Cycle II, Recovery (days 32-37)
[8] = Cycle III, Chemotherapy (days 38-42)
[9] = Cycle III, Recovery (days 49-56)

Substance: GM-CSF: granulocyte/macrophage-colony stimulating factor, the hemopoiesis growth factor, procured from Immunix Research and Development Corp.
- Percent change, white blood cell count [1, 5]: -9.1838%
- Percent change, white blood cell count ([1]; Cycle I, Nadir (days 5-10)): 17.5916%
- Percent change, white blood cell count ([1]; Cycle I, Recovery (days 11-20)): 5.3418%
- Percent change, white blood cell count [1, 6]: 43.1551%
- Percent change, white blood cell count ([1]; Cycle II, Nadir (days 26-31)): 40.2987%
- Percent change, white blood cell count [1, 7]: -7.2022%
- Percent change, white blood cell count [1, 8]: 7.717%
- Percent change, white blood cell count ([1]; Cycle III, Nadir (days 43-48)): -9.5103%
- Percent change, white blood cell count [1, 9]: -0.8913%
- White blood cell counts, change in words ([1]; recovery period of Cycles II and III): decreased
- Percent change, platelet count [2, 5]: 30.5966%
- Percent change, platelet count ([2]; Cycle I, Nadir (days 5-10)): 0.0332%
- Percent change, platelet count ([2]; Cycle I, Recovery (days 11-20), marked significant): 10.6804%
- Percent change, platelet count [2, 6]: 0.5878%
- Percent change, platelet count ([2]; Cycle II, Nadir (days 26-31)): 0.0259%
- Percent change, platelet count ([2]; Cycle II, Recovery (days 32-37), marked significant): 20.4577%
- Percent change, platelet count [2, 8]: 15.5436%
- Percent change, platelet count ([2]; Cycle III, Nadir (days 43-48)): 14.0708%
- Percent change, platelet count ([2]; Cycle III, Recovery (days 49-56), marked significant): 11.9135%
- Platelet counts, change in words ([2]; recovery periods, three cycles combined, p=0.0003): significantly increased
- Ability of the animals to tolerate multiple cycles of chemotherapy [3]: did not enhance
- Percent change, polymorphonuclear cell count [4, 5]: -0.2001%
- Percent change, polymorphonuclear cell count ([4]; Cycle I, Nadir (days 5-10)): 23.1962%
- Percent change, polymorphonuclear cell count ([4]; Cycle I, Recovery (days 11-20)): 21.7299%
- Percent change, polymorphonuclear cell count [4, 6]: 19.8969%
- Percent change, polymorphonuclear cell count ([4]; Cycle II, Nadir (days 26-31)): 9.4827%
- Percent change, polymorphonuclear cell count [4, 7]: -10.9401%
- Percent change, polymorphonuclear cell count [4, 8]: 29.7855%
- Percent change, polymorphonuclear cell count ([4]; Cycle III, Nadir (days 43-48)): 1.6526%
- Percent change, polymorphonuclear cell count [4, 9]: -0.7213%
